Tests used:
pigweed [1] = test: Test A preemergence; format: in vivo, Amaranthus retroflexus; settings: for Plant response rating, Pigweed: 125 g ai/ha, 0 to 100 scale where 0 is no effect and 100 is complete control; for Pigweed plant response rating: 0 to 100 scale, 0 no effect, 100 complete control, approx. 10 days
In short: (§1)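 Visual 0–100 rating (100 = complete control) taken about 10 d post-treatment relative to untreated checks. Preemergence: directed soil spray on sown loam/sand pots. Postemergence: seedlings 2–10 cm, 1–2 leaf. Non-phytotoxic solvent formulation with surfactant.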

waterhemp = test: Test C preemergence; format: in vivo, Amaranthus rudis; settings: for Waterhemp plant response rating: preemergence; for Plant response rating, Waterhemp: Preemergence, 31 g ai/ha, scale 0 to 100, 0 no effect, 100 complete control
In short: (§2)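 Whole-plant greenhouse test with surfactant-containing solvent formulation, applied preemergence to sown loam–sand pots or postemergence to 2–18 cm plants. Scored by eye 13 to 15 days on, 0–100 scale.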

oilseed rape = test: Test C postemergence; format: in vivo, Brassica napus
In short: as §2

ragweed [2] = test: Test C preemergence; format: in vivo, Ambrosia elatior; settings: for Ragweed plant response rating: preemergence; for Plant response rating, Ragweed: Preemergence, 31 g ai/ha, scale 0 to 100, 0 no effect, 100 complete control
In short: as §2

ragweed [3] = test: Test C postemergence; format: in vivo, Ambrosia elatior
In short: as §2

velvetleaf = test: Test C postemergence; format: in vivo, Abutilon theophrasti
In short: as §2

soybean = test: Test C preemergence; format: in vivo, Glycine max; settings: for Soybean plant response rating: preemergence; for Plant response rating, Soybean: Preemergence, 31 g ai/ha, scale 0 to 100, 0 no effect, 100 complete control
In short: as §2

galium = test: Test C postemergence; format: in vivo, Galium aparine; settings: for Galium plant response rating / Plant response rating, Galium: scale 0 to 100 (0 no effect, 100 complete control)
In short: as §2

corn = test: Test A postemergence; format: in vivo, Zea mays
In short: as §1

wheat = test: Test A postemergence; format: in vivo, Triticum aestivum
In short: as §1

pigweed [4] = test: Test C postemergence; format: in vivo, Amaranthus retroflexus
In short: as §2

giant foxtail = test: Test C preemergence; format: in vivo, Setaria faberii; settings: for Foxtail, Giant plant response rating: preemergence; for Plant response rating, Foxtail, Giant: Preemergence, 31 g ai/ha, scale 0 to 100, 0 no effect, 100 complete control
In short: as §2

johnsongrass = test: Test C preemergence; format: in vivo, Sorghum halepense; settings: for Johnsongrass plant response rating: preemergence; for Plant response rating, Johnsongrass: Preemergence, 31 g ai/ha, scale 0 to 100, 0 no effect, 100 complete control
In short: as §2

[5] = 16 g ai/ha, scale 0 to 100 (0 no effect, 100 complete control)
[6] = 62 g ai/ha, scale 0 (no effect) to 100 (complete control)
[7] = 125 g ai/ha, scale 0 (no effect) to 100 (complete control)
[8] = Postemergence, 31 g ai/ha, scale 0 to 100 (0 no effect, 100 complete control), 13 to 15 days
[9] = Postemergence, 62 g ai/ha, scale 0 to 100 (0 no effect, 100 complete control)
[10] = 16 g ai/ha, postemergence, visual rating, 13 to 15 days
[11] = Postemergence, 31 g ai/ha, 13 to 15 days
[12] = 125 g ai/ha, 0 to 100 scale where 0 is no effect and 100 is complete control
[13] = 500 g ai/ha, 0 to 100 scale where 0 is no effect and 100 is complete control
[14] = 16 g ai/ha, postemergence, 0 is no effect, 100 is complete control
[15] = 31 g ai/ha, postemergence, visual rating, scale 0 to 100 (0 no effect, 100 complete control), 13 to 15 days
[16] = 125 g ai/ha, postemergence, visual rating, scale 0 to 100 (0 no effect, 100 complete control)
[17] = 1000 g ai/ha, 0 to 100 scale, 0 no effect, 100 complete control

CCOc1cnn(-c2c(C#N)cccc2Oc2ncc(F)cn2)c1 [Compound 89]
Plant response rating, Pigweed (pigweed [1]): 90 | Pigweed plant response rating (pigweed [1]; 500 g ai/ha): 100 | Waterhemp plant response rating (waterhemp; [5]): 80 | Waterhemp plant response rating (waterhemp; [6]): 100 | Waterhemp plant response rating (waterhemp; [7]): 100 | Plant response rating, Waterhemp (waterhemp): 100 | Plant response rating (0 to 100), Oilseed Rape (oilseed rape; 125 g ai/ha, postemergence): 60 | Plant response rating, Oilseed Rape (oilseed rape; [8]): 25 | Plant response rating, Oilseed Rape (oilseed rape; [9]): 55 | Ragweed plant response rating (ragweed [2]; [5]): 40 | Ragweed plant response rating (ragweed [2]; [6]): 75 | Ragweed plant response rating (ragweed [2]; [7]): 100 | Plant response rating, Ragweed (ragweed [2]): 55 | Plant response rating (0 to 100), Ragweed (ragweed [3]; 125 g ai/ha, postemergence): 70 | Plant response rating, Ragweed (ragweed [3]; [8]): 40 | Plant response rating, Ragweed (ragweed [3]; [9]): 60 | Plant response rating (0 to 100), Velvetleaf (velvetleaf; 125 g ai/ha, postemergence): 40 | Plant response rating, Velvetleaf (velvetleaf; [8]): 15 | Plant response rating, Velvetleaf (velvetleaf; [9]): 25 | Soybean plant response rating (soybean; [5]): 30 | Soybean plant response rating (soybean; [6]): 90 | Soybean plant response rating (soybean; [7]): 98 | Plant response rating, Soybean (soybean): 45 | Galium plant response rating (galium; [10]): 45 | Plant response rating (0 to 100), Galium (galium; 125 g ai/ha, postemergence): 55 | Plant response rating, Galium (galium; [11]): 40 | Plant response rating, Galium (galium; Postemergence, 62 g ai/ha): 50 | Plant response rating, Corn (corn; [12]): 60 | Plant response rating, Corn (corn; [13]): 90 | Plant response rating, Wheat (wheat; [12]): 20 | Plant response rating, Wheat (wheat; [13]): 70 | Plant response rating (0 to 100), Pigweed (pigweed [4]; 125 g ai/ha, postemergence): 40 | Plant response rating, Pigweed (pigweed [4]; [8]): 35 | Plant response rating, Pigweed (pigweed [4]; [9]): 35 | Foxtail, Giant plant response rating (giant foxtail; [5]): 5 | Foxtail, Giant plant response rating (giant foxtail; [6]): 100 | Foxtail, Giant plant response rating (giant foxtail; [7]): 100 | Plant response rating, Foxtail, Giant (giant foxtail): 35 | Johnsongrass plant response rating (johnsongrass; [5]): 0 | Johnsongrass plant response rating (johnsongrass; [6]): 20 | Johnsongrass plant response rating (johnsongrass; [7]): 75 | Plant response rating, Johnsongrass (johnsongrass): 0

FCc1cn(-c2c(F)cccc2Oc2ncc(Cl)cn2)nn1 [Compound 154]
Pigweed plant response rating (pigweed [1]; 1000 g ai/ha): 100 | Waterhemp plant response rating (waterhemp; [5]): 100 | Waterhemp plant response rating (waterhemp; [6]): 100 | Waterhemp plant response rating (waterhemp; [7]): 100 | Plant response rating (0 to 100), Oilseed Rape (oilseed rape; [14]): 40 | Oilseed Rape plant response rating (oilseed rape; [15]): 50 | Plant response rating, Oilseed Rape (oilseed rape; [16]): 80 | Plant response rating, Oilseed Rape (oilseed rape; [9]): 50 | Ragweed plant response rating (ragweed [2]; [5]): 75 | Ragweed plant response rating (ragweed [2]; [6]): 95 | Ragweed plant response rating (ragweed [2]; [7]): 90 | Plant response rating (0 to 100), Ragweed (ragweed [3]; [14]): 35 | Ragweed plant response rating (ragweed [3]; [15]): 45 | Plant response rating, Ragweed (ragweed [3]; [16]): 90 | Plant response rating, Ragweed (ragweed [3]; [9]): 100 | Plant response rating (0 to 100), Velvetleaf (velvetleaf; [14]): 25 | Velvetleaf plant response rating (velvetleaf; [15]): 45 | Plant response rating, Velvetleaf (velvetleaf; [16]): 80 | Plant response rating, Velvetleaf (velvetleaf; [9]): 70 | Soybean plant response rating (soybean; [5]): 50 | Soybean plant response rating (soybean; [6]): 80 | Soybean plant response rating (soybean; [7]): 95 | Plant response rating (0 to 100), Galium (galium; [14]): 60 | Galium plant response rating (galium; 31 g ai/ha, postemergence, visual rating, 13 to 15 days): 65 | Plant response rating, Galium (galium; 125 g ai/ha, postemergence, visual rating): 85 | Plant response rating, Galium (galium; Postemergence, 62 g ai/ha): 80 | Plant response rating, Corn (corn; [17]): 90 | Plant response rating, Wheat (wheat; [17]): 80 | Plant response rating (0 to 100), Pigweed (pigweed [4]; [14]): 25 | Pigweed plant response rating (pigweed [4]; [15]): 30 | Plant response rating, Pigweed (pigweed [4]; [16]): 75 | Plant response rating, Pigweed (pigweed [4]; [9]): 60 | Foxtail, Giant plant response rating (giant foxtail; [5]): 5 | Foxtail, Giant plant response rating (giant foxtail; [6]): 85 | Foxtail, Giant plant response rating (giant foxtail; [7]): 100 | Plant response rating, Foxtail, Giant (giant foxtail): 70 | Johnsongrass plant response rating (johnsongrass; [5]): 0 | Johnsongrass plant response rating (johnsongrass; [6]): 40 | Johnsongrass plant response rating (johnsongrass; [7]): 85

N#Cc1cccc(Oc2ncc(Br)cn2)c1-n1cc(I)cn1 [Compound 88]
Plant response rating, Pigweed (pigweed [1]): 100 | Pigweed plant response rating (pigweed [1]; 500 g ai/ha): 100 | Waterhemp plant response rating (waterhemp; [5]): 98 | Waterhemp plant response rating (waterhemp; [6]): 100 | Waterhemp plant response rating (waterhemp; [7]): 100 | Plant response rating, Waterhemp (waterhemp): 100 | Plant response rating (0 to 100), Oilseed Rape (oilseed rape; 125 g ai/ha, postemergence): 45 | Plant response rating, Oilseed Rape (oilseed rape; [8]): 50 | Plant response rating, Oilseed Rape (oilseed rape; [9]): 55 | Ragweed plant response rating (ragweed [2]; [5]): 0 | Ragweed plant response rating (ragweed [2]; [6]): 5 | Ragweed plant response rating (ragweed [2]; [7]): 60 | Plant response rating, Ragweed (ragweed [2]): 0 | Plant response rating (0 to 100), Ragweed (ragweed [3]; 125 g ai/ha, postemergence): 60 | Plant response rating, Ragweed (ragweed [3]; [8]): 55 | Plant response rating, Ragweed (ragweed [3]; [9]): 55 | Plant response rating (0 to 100), Velvetleaf (velvetleaf; 125 g ai/ha, postemergence): 55 | Plant response rating, Velvetleaf (velvetleaf; [8]): 35 | Plant response rating, Velvetleaf (velvetleaf; [9]): 40 | Soybean plant response rating (soybean; [5]): 0 | Soybean plant response rating (soybean; [6]): 40 | Soybean plant response rating (soybean; [7]): 90 | Plant response rating, Soybean (soybean): 5 | Galium plant response rating (galium; [10]): 70 | Plant response rating (0 to 100), Galium (galium; 125 g ai/ha, postemergence): 95 | Plant response rating, Galium (galium; [11]): 80 | Plant response rating, Galium (galium; Postemergence, 62 g ai/ha): 70 | Plant response rating, Corn (corn; [12]): 30 | Plant response rating, Corn (corn; [13]): 50 | Plant response rating, Wheat (wheat; [12]): 0 | Plant response rating, Wheat (wheat; [13]): 50 | Plant response rating (0 to 100), Pigweed (pigweed [4]; 125 g ai/ha, postemergence): 90 | Plant response rating, Pigweed (pigweed [4]; [8]): 85 | Plant response rating, Pigweed (pigweed [4]; [9]): 85 | Foxtail, Giant plant response rating (giant foxtail; [5]): 5 | Foxtail, Giant plant response rating (giant foxtail; [6]): 98 | Foxtail, Giant plant response rating (giant foxtail; [7]): 100 | Plant response rating, Foxtail, Giant (giant foxtail): 65 | Johnsongrass plant response rating (johnsongrass; [5]): 0 | Johnsongrass plant response rating (johnsongrass; [6]): 40 | Johnsongrass plant response rating (johnsongrass; [7]): 85 | Plant response rating, Johnsongrass (johnsongrass): 0

CCOc1cn(-c2c(Br)cccc2Oc2ncc(Cl)cn2)nn1 [Compound 84]
Plant response rating, Pigweed (pigweed [1]): 100 | Pigweed plant response rating (pigweed [1]; 500 g ai/ha): 100 | Waterhemp plant response rating (waterhemp; [5]): 100 | Waterhemp plant response rating (waterhemp; [6]): 100 | Waterhemp plant response rating (waterhemp; [7]): 100 | Plant response rating, Waterhemp (waterhemp): 75 | Plant response rating (0 to 100), Oilseed Rape (oilseed rape; 125 g ai/ha, postemergence): 60 | Plant response rating, Oilseed Rape (oilseed rape; [8]): 20 | Plant response rating, Oilseed Rape (oilseed rape; [9]): 45 | Ragweed plant response rating (ragweed [2]; [5]): 0 | Ragweed plant response rating (ragweed [2]; [6]): 60 | Ragweed plant response rating (ragweed [2]; [7]): 85 | Plant response rating, Ragweed (ragweed [2]): 60 | Plant response rating (0 to 100), Ragweed (ragweed [3]; 125 g ai/ha, postemergence): 80 | Plant response rating, Ragweed (ragweed [3]; [8]): 10 | Plant response rating, Ragweed (ragweed [3]; [9]): 40 | Plant response rating (0 to 100), Velvetleaf (velvetleaf; 125 g ai/ha, postemergence): 90 | Plant response rating, Velvetleaf (velvetleaf; [8]): 45 | Plant response rating, Velvetleaf (velvetleaf; [9]): 70 | Soybean plant response rating (soybean; [5]): 0 | Soybean plant response rating (soybean; [6]): 60 | Soybean plant response rating (soybean; [7]): 70 | Plant response rating, Soybean (soybean): 20 | Galium plant response rating (galium; [10]): 60 | Plant response rating (0 to 100), Galium (galium; 125 g ai/ha, postemergence): 95 | Plant response rating, Galium (galium; [11]): 75 | Plant response rating, Galium (galium; Postemergence, 62 g ai/ha): 60 | Plant response rating, Corn (corn; [12]): 20 | Plant response rating, Corn (corn; 500 g ai/ha, 0 to 100 scale, 0 no effect, 100 complete control): 70 | Plant response rating, Wheat (wheat; [12]): 30 | Plant response rating, Wheat (wheat; [13]): 80 | Plant response rating (0 to 100), Pigweed (pigweed [4]; 125 g ai/ha, postemergence): 85 | Plant response rating, Pigweed (pigweed [4]; [8]): 50 | Plant response rating, Pigweed (pigweed [4]; [9]): 80 | Foxtail, Giant plant response rating (giant foxtail; [5]): 5 | Foxtail, Giant plant response rating (giant foxtail; [6]): 98 | Foxtail, Giant plant response rating (giant foxtail; [7]): 100 | Plant response rating, Foxtail, Giant (giant foxtail): 55 | Johnsongrass plant response rating (johnsongrass; [5]): 0 | Johnsongrass plant response rating (johnsongrass; [6]): 40 | Johnsongrass plant response rating (johnsongrass; [7]): 85 | Plant response rating, Johnsongrass (johnsongrass): 20

— patent US9695155B2, “Herbicidal substituted pyrimidinyloxy benzene compounds” (E. I. DU PONT DE NEMOURS AND COMPANY, priority 2013, dated 2017)
